Assays:
[1] = human, in vivo
Description: There were two studies in the project. Study 1 was under the fasting state, and study 2 was under the fed state. […] The studies aimed to compare the PK profiles and safeties of the T and R drugs. The study protocols were approved by the Wuxi People’s Hospital Ethics Committee (Approval No. 2018LLPJ-I-14-03) and were conducted at Wuxi People’s Hospital Affiliated to Nanjing Medical University, Jiangsu Province, China. The studies were performed in accordance with the principles of the World Medical Association (WMA) Declaration of Helsinki. All volunteers signed written informed consents before enrollment.
Subjects received a single oral dose of the T or R drug in each period in a randomized way under either fasting or fed conditions, with a wash-out of 7 days. For the fed study, subjects finished the high-fat diet (containing protein 16.52%, fat 56.85%, carbohydrate 26.63%) in 30 min and were given the drug with 240 ml of a 20% glucose solution in water 30 min after they started eating the diet. For the fasting study, the drug was administered with 240 ml of a 20% glucose solution in water under the fasting state. An overnight fast for at least 10 h before administration was required. Subjects were not allowed to drink water 1 h before and after dosing, and lunch could be served only 4 h after dosing for both studies.
Venous blood samples (4 ml) were collected from an intravenous indwelling catheter before dosing and at 0.5, 1, 1.5, 2, 2.5, 3, 3.5, 4, 4.5, 5, 6, 7, 8, 9, 10, 11, 12, 14, 24, 32, 48, and 72 h after dosing for both fed and fasting studies. Blood samples were drawn into BD Vacutainers® with ethylene diamine tetra acetic acid (EDTA) anticoagulant. Plasma was separated by centrifugation at 2150 ± 5 g for 10 min at 2°C–8°C and stored at −20°C within 2 h after sampling and transferred to −80°C within 24 h.
Study data were summarized by descriptive statistics. The statistical analyses were performed using SAS® version 9.4. For the comparisons, Cmax, AUC0–t, and AUC0–∞ were analyzed using linear mixed models after logarithmic transformation. […] was achieved if the 90% CI of each parameter geometric means ratio (GMR) test/reference fell between 0.8–1.25. The statistical analysis included treatment, period, sequence, and subject-within-sequence as fixed effects. Tmax was compared between treatments using the non-parametric Wilcoxon signed-rank test.

[2] = parameters: method as in Schnaars et al., 2023; details: metformin 1000 mg, IR; fed condition; ref Schnaars et al., 2023; cited from earlier work
[3] = sitagliptin, ref FDA, 2005, 2006, 2012; cited from earlier work
[4] = Published BE studies of sitagliptin (100 mg) and sitagliptin–metformin (50/1000 mg) IR fixed-dose combination; type: in vivo; details: sitagliptin (100 mg) alone; fasting condition; published values (ref Schnaars et al., 2023) compared with own data

Compound	Intra-individual variation of AUC0-t [1] [%]	Intra-individual variation of AUC0-∞ [1] [%]	Intra-individual variation of Cmax [1] [%]	Cmax [2] [ng/mL]	median Tmax [2] [h]	t1/2 [3]	Cmax, AUC0−t, AUC0−∞ higher than the data of this study [4]
CN(C)C(=N)N=C(N)N [Metformin, metformin]	13.01	13.31	11.61	1.59289	3.5		
N[C@@H](CC(=O)N1CCn2c(nnc2C(F)(F)F)C1)Cc1cc(F)c(F)cc1F [Sitagliptin, sitagliptin]	6.05	6.04	19.42			around 12 h	14–32%

Source: PMC10073488 (Frontiers in Pharmacology, 2023)
